Experimental data: patent US20260373497A1, “MOLECULAR MACHINES STIMULATE INTERCELLULAR CALCIUM WAVES AND CAUSE MUSCLE CONTRACTION” (William Marsh Rice University, priority 2022, published 2026)
Entries after “also recorded” stand apart in the source; their conditions may differ.

Legend:
[1] = system: C2C12 myoblasts; experiment: Localization of MM 1 in C2C12 cells; format: cell-based, mouse; conditions: 45 minutes of incubation
[2] = system: C2C12 myoblasts; experiment: MM-induced calcium release in C2C12 cells (Fluo-4); format: cell-based, mouse; conditions: MM 1, 1 s instead of 500 ms
[3] = system: HeLa cells; experiment: MM-induced calcium responses in HeLa cells; format: cell-based; conditions: 400 nm, 250 ms, 3.2×10^2 W cm^−2
From the text: FIGS. 12A & 12B—ICW in HeLa cells after stimulation with MM 1 and light. (a) Confocal images of HeLa cells treated with MM 1 (blue) and Fluo-4 calcium tracking dye (green). The white circle in the bottom-left image depicts the area to which light stimulus was delivered. Scale bar is 50 μm and applies to all images. (b) Fluo-4 fluorescence traces of HeLa cells treated with MM 1 and stimulated with 250 ms pulse of 400 nm light delivered to a 5 μm diameter circular region of interest at 3.2×10^2 W cm^−2 stimulation power.
Cell Culture and Preparation of Cells for Microscopy: HEK293 cells were chosen as the principal model system due to their prevalence in electrophysiological interrogation. […] HEK293 cells, HeLa cells, and N2A cells were cultured in DMEM (10% FBS, 1% penicillin/streptomycin) and passaged at <90% confluence. […]
In Vitro Imaging and Stimulation: Cells were loaded in a Nikon A1-Rsi confocal system mounted on a widefield Ti-E fluorescence microscope. […] Laser stimulation for in vitro experiments was performed with a 400 nm photodiode laser (Coherent OBIS™ LX SF) operating in a fluorescence-recovery-after-photobleaching (FRAP) experiment mode, delivering up to 6.4×10^2 W cm^−2 at sample level. […] Fluo-4 fluorescence was collected for 30 s before and 2 min after stimulation. […]

[4] = system: C2C12 myoblasts; experiment: MM-induced calcium release in C2C12 cells (Fluo-4); format: cell-based, mouse; conditions: for Calcium release in C2C12 myoblasts: light for 500 ms, MM 1 8 μM
From the text: FIGS. 36A-36D—MMs cause intracellular calcium waves in C2C12 myoblasts, a) MM 1 (unidirectional, ~3 MHz) structure showing rotor and stator. b) Rotation cycle of a MM. c) Confocal microscope images of C2C12 myoblasts with MM and labeled with Fluo-4. Stimulated areas are indicated by the red arrows immediately before stimulation and 10 s after stimulation. Scale bar=30 μm. d) Average normalized fluorescence intensity trace of stimulated C2C12 cells myoblasts treated with either DMSO (n=6) or MM 1 (n=7) and stimulated with 400-nm laser light for 500 ms. Laser stimulation is shown by the cyan line.
Fluo-4 is an intracellular calcium dye that fluoresces green when binding to calcium and is commonly used to observe intracellular calcium spikes in many cell types.
C2C12 cells will undergo differentiation from myoblasts to multinucleated myotubes when allowed to grow to confluence. This process occurs over the course of several days and can be sped up by replacing normal growth media with low serum differentiation media (Jang et al., 2022). The responsiveness of C2C12 cells to MM stimulation changes was tracked as they went through the process of growth and differentiation (FIG. 39). When plated on the first day, the cells are in low confluency, and show clear morphology of myoblasts. The cells reach around 100% confluency on day 4 (FIG. 39A), at which point they begin to differentiate to form the myotubes. They show lowest uptake of Fluo-4 and nearly no responses. After about 9 days of growth in regular growth media, myotubes begin to form, which have a fibrous, striated and multinucleated appearance, and the uptake of Fluo-4 could be observed again.

[5] = UV-Vis absorbance of motors in DMSO; format: physicochemical
From the text: The UV-Vis spectrum of each motor was also acquired in DMSO (FIG. 37D) to ensure that the difference in absorbance at 400 nm was not the cause of larger or smaller responses.

## CC1Cc2ccc3ccccc3c2C1=C1c2ccccc2Sc2cc(NCCN(C)C)ccc21 (stereo not shown) [MM 1]
[1]
  Cell permeation: permeate through the cell membrane after 45 minutes of incubation
[2]
  Calcium release at longer stimulation: larger calcium release
[3]
  Calcium responses induced by MM 1 actuation: also observed
[4]; MM 1 + light, with thiourea-containing scavenger combination (1× and 0.2×)
  Calcium release with scavenger combination: without changing the magnitude of calcium release
[4]; MM 1, day 1 to day 3
  Responsiveness to MM stimulation during differentiation: slight decrease of the responsivity from day 1 to day 3
[4]; MM 1, day 4 to day 8
  Responsiveness to MM stimulation during differentiation: lose their responsiveness to MM stimulation
[4]; MM 1, day 9
  Responsiveness to MM stimulation during differentiation: increase in responsiveness to MM stimulation
[4]; MM 1, lower laser powers
  Calcium release at lower laser power: lower calcium release
[4]
  Calcium release in C2C12 myoblasts: robust intracellular calcium release; also recorded: calcium transients several times larger in magnitude than MM 2
[5]
  Absorbance at 400 nm: nearly identical absorbances at 400 nm

## CC1Cc2cc(NCCN(C)C)c3ccccc3c2C1=C1c2ccccc2-c2ccccc21 (stereo not shown) [MM 3]
[4]; MM 3, 3×
  Calcium release at 3 times higher concentration: no measurable increase in calcium release
[4]
  Calcium release in C2C12 myoblasts: did not induce any calcium release
[5]
  Absorbance at 400 nm: much smaller absorbance
